Where two headings read alike, the source gives them in different places.
Key:
PRMT5/MEP50 complex = biological target: T1, PRMT5/MEP50 complex (Homo sapiens, UniProt O14744); experiment: PRMT5:MEP50 HotSpot Assay (full-length histone H2A substrate, plus and minus MTA); type: biochemical; conditions: IC50 + 2 μM MTA, in the presence of 2 μM MTA
T1 construct: purchased Reaction Biology Corporation
Procedure, shortened: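 Tritiated product on full-length recombinant H2A was counted by scintillation after the stopped reaction was captured on filter paper. Substrate is histone H2A; conditions include plus and minus MTA.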

[1] = test system: HCT116 homozygous MTAP knockout cells; experiment: Proliferation assay (CellTiter-Glo, 10 days) in HCT116 homozygous MTAP knockout cells; type: cell-based; conditions: CellTiter-Glo after 10 days of treatment, read-out: Proliferation IC50 (nM) HCT116 MTAP_KO
Procedure, shortened: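 CellTiter-Glo viability read on day 11 gives a 10-day IC50. Dosing began one day after seeding, with a 1:10 split into fresh drug-containing medium on day 6. Cells are HCT116 lacking both MTAP alleles via CRISPR/Cas9, run alongside the parental line.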

[2] = test system: PRMT5-dependent Symmetric Di-methyl Arginine signal in HCT116 homozygous MTAP Knockout cells; experiment: SYM11 In-Cell Western in HCT116 homozygous MTAP knockout cells; type: cell-based
Experimental: HCT116 cells were genetically engineered to knock out the function of both MTAP alleles using a CRISPR/Cas9 system and an sgRNA targeting the MTAP gene. Following Cas9/MTAP sgRNA transduction, clones were screened to confirm that each allele of the MTAP gene had been inactivated (i.e., homozygous MTAP knock out) creating an MTAP-deficient cell.
(§1) Control samples were analyzed in parallel.
(§2) Briefly, on Day 0, 2,000 HCT116 parental or HCT116 homozygous MTAP knockout cells were seeded in 96 well plates in McCoy's 5A supplemented with 10% fetal bovine serum and pen/strep and the cells were incubated overnight at 37° C. plus 5% CO2. The following day, cells were treated with DMSO vehicle control or a dose response of PRMT5 inhibitors, and incubated at 37° C. plus 5% CO^2 for four days.
(§3) After 4 days of treatment, the cells were fixed by adding 50 μl of 4% paraformaldehyde solution to each well and the cells were incubated for 20 min at room temperature. The paraformaldehyde solution was removed, 150 μl of ice-cold methanol was added and the plate was placed −20° C. for 10 minutes. The methanol was removed, 150 μl of Odyssey Blocking buffer+0.05% Tween20 was added and the plate was incubated at room temperature with shaking for one hour.
(§4) The primary SYM11 antibody solution was removed by aspiration and the wells were washed three consecutive times with phosphate buffered saline containing 0.1% Tween-20 (PBST).
(§5) The secondary antibody solution was removed by aspiration and the wells were washed three consecutive times with PBST.
(§6) The SYM11 signal and the DRAQ5 signal were quantified using a Li-Cor Odyssey machine reading at […], respectively. The SYM11/DRAQ5 ratio was used to calculate the inhibition of Symmetric Dimethyl Arginine as percent of DMSO control.

[3] = test system: PRMT5-dependent Symmetric Di-methyl Arginine signal in HCT116 parental cells; experiment: SYM11 In-Cell Western in HCT116 parental cells; type: cell-based; conditions: Homo sapiens, HCT-116, 96 h, read-out: In-cell-Western (SYM11) IC50 (nM) HCT216 parental
Experimental: as §1, §2, §3, §4, §5, §6

[4] = 4 days of treatment, SYM11/DRAQ5 ratio as percent of DMSO control, read-out: In-cell-Western (SYM11) IC50 (nM) HCT116 MTAP_KO
[5] = Homo sapiens, HCT-116, 96 h, 4 days of treatment, SYM11/DRAQ5 ratio as percent of DMSO control, read-out: In-cell-Western (SYM11) IC50 (nM) HCT116 MTAP_KO
[6] = HCT116 parental cells, 4 days of treatment, SYM11/DRAQ5 ratio as percent of DMSO control

T1 sequence (O14744 2-637 limits assumed): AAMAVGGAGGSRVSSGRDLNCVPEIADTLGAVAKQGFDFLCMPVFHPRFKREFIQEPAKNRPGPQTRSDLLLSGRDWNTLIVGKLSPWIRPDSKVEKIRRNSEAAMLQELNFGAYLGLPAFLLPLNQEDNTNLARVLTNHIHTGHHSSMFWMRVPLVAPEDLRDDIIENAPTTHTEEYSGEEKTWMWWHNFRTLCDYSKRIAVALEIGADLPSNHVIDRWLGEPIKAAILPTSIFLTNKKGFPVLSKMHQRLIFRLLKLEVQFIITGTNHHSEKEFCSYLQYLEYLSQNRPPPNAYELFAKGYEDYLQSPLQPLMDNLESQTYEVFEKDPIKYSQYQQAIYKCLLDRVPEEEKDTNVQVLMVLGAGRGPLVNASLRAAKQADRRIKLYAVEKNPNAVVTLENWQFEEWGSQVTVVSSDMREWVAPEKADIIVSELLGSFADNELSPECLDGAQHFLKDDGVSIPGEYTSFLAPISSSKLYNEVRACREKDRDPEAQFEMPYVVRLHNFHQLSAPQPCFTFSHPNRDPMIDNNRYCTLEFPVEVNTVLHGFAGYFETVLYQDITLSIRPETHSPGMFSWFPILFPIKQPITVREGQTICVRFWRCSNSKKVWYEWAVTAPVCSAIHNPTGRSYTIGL
T1 sequence (Q9BQA1 2-342 partner limits assumed): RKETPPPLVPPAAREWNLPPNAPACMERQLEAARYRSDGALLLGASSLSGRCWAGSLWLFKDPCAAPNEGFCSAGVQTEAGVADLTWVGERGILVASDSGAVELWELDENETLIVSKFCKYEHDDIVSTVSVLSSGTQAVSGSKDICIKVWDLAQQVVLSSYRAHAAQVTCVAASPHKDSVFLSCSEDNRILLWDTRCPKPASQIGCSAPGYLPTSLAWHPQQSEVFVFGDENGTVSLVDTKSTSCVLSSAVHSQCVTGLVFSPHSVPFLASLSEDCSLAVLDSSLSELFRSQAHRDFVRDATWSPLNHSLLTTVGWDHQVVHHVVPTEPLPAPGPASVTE

Row | Structure (SMILES) | IC50 (PRMT5/MEP50 complex) [nM] | IC50 [1] [nM] | IC50 [2, 4] [nM] | IC50 [3] [nM] | IC50 ([2]; read-out: In-cell-Western (SYM11) IC50 (nM) HCT116 MTAP_KO, 4 days of treatment, SYM11/DRAQ5 ratio as percent of DMSO control) [nM] | IC50 ([1]; Homo sapiens, HCT-116, 240 h) [nM] | IC50 [2, 5] [nM] | IC50 [3, 6] [nM]
1 | Cc1cc(OC2CC2)c(C#N)c(-c2c(-c3cc(C)c4c(=O)[nH]nc(CN)c4c3)cnn2C)c1F (single isomer, unassigned) [Example 16-43, (P)-2-(4-(4-(aminomethyl)-8-methyl-1-oxo-1,2-dihydrophthalazin-6-yl)-1-methyl-1H-pyrazol-5-yl)-6-cyclopropoxy-3-fluoro-4-methylbenzonitrile] | 2000 | 1300 | 656 | – | – | – | – | –
2 | Cc1cc(OC2CC2)c(C#N)c(-c2c(-c3cc(C)c4c(=O)[nH]nc(CN)c4c3)cnn2C)c1F (single isomer, unassigned) [Example 16-44, (M)-2-(4-(4-(aminomethyl)-8-methyl-1-oxo-1,2-dihydrophthalazin-6-yl)-1-methyl-1H-pyrazol-5-yl)-6-cyclopropoxy-3-fluoro-4-methylbenzonitrile] | 69.5 | 20 | 13 | – | – | – | – | –
3 | Cc1cc(-c2cnn(C)c2-c2c(F)c(Cl)cc(OC3CC3)c2C#N)cc2c(CN)n[nH]c(=O)c12 (single isomer, unassigned) [Example 16-45, (P)-2-[4-[4-(aminomethyl)-8-methyl-1-oxo-2H-phthalazin-6-yl]-2-methyl-pyrazol-3-yl]-4-chloro-6-(cyclopropoxy)-3-fluoro-benzonitrile] | 1970 | 798 | 282 | – | – | – | – | –
4 | Cc1cc(-c2cnn(C)c2-c2c(F)c(Cl)cc(OC3CC3)c2C#N)cc2c(CN)n[nH]c(=O)c12 (single isomer, unassigned) [Example 16-46, (M)-2-[4-[4-(aminomethyl)-8-methyl-1-oxo-2H-phthalazin-6-yl]-2-methyl-pyrazol-3-yl]-4-chloro-6-(cyclopropoxy)-3-fluoro-benzonitrile] | 41.9 | 7 | 6 | – | – | – | – | –
5 | Cc1cc(-c2cnn(C)c2-c2c(C#N)cc3ccccc3c2Cl)cc2c(CN)n[nH]c(=O)c12 (single isomer, unassigned) [Example 16-51, (P)-3-[4-[4-(aminomethyl)-8-methyl-1-oxo-2H-phthalazin-6-yl]-2-methyl-pyrazol-3-yl]-4-chloro-naphthalene-2-carbonitrile] | 261 | 706 | 6 | – | – | – | – | –
6 | Cc1cc(-c2cnn(C)c2-c2c(C#N)cc3ccccc3c2Cl)cc2c(CN)n[nH]c(=O)c12 (single isomer, unassigned) [Example 16-52, (M)-3-[4-[4-(aminomethyl)-8-methyl-1-oxo-2H-phthalazin-6-yl]-2-methyl-pyrazol-3-yl]-4-chloro-naphthalene-2-carbonitrile] | 29.1 | 19 | 13 | – | – | – | – | –
7 | Cn1ncc(-c2cc(Cl)c3c(=O)[nH]nc(CN)c3c2)c1-c1c(C#N)cc2ccccc2c1Cl (single isomer, unassigned) [Example 16-63, (P)-3-[4-[4-(aminomethyl)-8-chloro-1-oxo-2H-phthalazin-6-yl]-2-methyl-pyrazol-3-yl]-4-chloro-naphthalene-2-carbonitrile] | 341 | 859 | 437 | – | – | – | – | –
8 | Cn1ncc(-c2cc(Cl)c3c(=O)[nH]nc(CN)c3c2)c1-c1c(C#N)cc2ccccc2c1Cl (single isomer, unassigned) [Example 16-64, (M)-3-[4-[4-(aminomethyl)-8-chloro-1-oxo-2H-phthalazin-6-yl]-2-methyl-pyrazol-3-yl]-4-chloro-naphthalene-2-carbonitrile] | 23.3 | 17 | 13 | – | – | – | – | –
9 | Cn1ncc(-c2ccc3c(=O)[nH]nc(CN)c3c2)c1-c1c(F)c(Cl)cc(OC2CC2)c1C#N [Example 4-230, 2-(4-(4-(aminomethyl)-1-oxo-1,2-dihydrophthalazin-6-yl)-1-methyl-1H-pyrazol-5-yl)-4-chloro-6-cyclopropoxy-3-fluorobenzonitrile] | – | – | – | > 1000 | 6 | – | – | –
10 | CCn1cccc(-c2c(-c3ccc4c(=O)[nH]nc(CN)c4c3)cnn2C)c1=O [Example 4-255, 4-(aminomethyl)-6-(5-(1-ethy1-2-oxo-1,2-dihydropyridin-3-yl)-1-methyl-1H-pyrazol-4-yl)phthalazin-1(2H)-one] | 9620 | – | – | – | – | 1630 | 955 | –
11 | Cn1ncc(-c2ccc3c(=O)[nH]nc(CN)c3c2)c1-c1sc2ccc(Cl)cc2c1C#N [Example 4-262, 2-[4-[4-(aminomethyl)-1-oxo-2H-phthalazin-6-yl]-2-methyl-pyrazol-3-yl]-5-chloro-benzothiophene-3-carbonitrile] | 108 | – | – | – | – | 281 | 98 | –
12 | Cn1ncc(-c2ccc3c(=O)[nH]nc(CN)c3c2)c1-c1c(C#N)sc2ccccc12 [Example 4-266, 3-[4-[4-(aminomethyl)-1-oxo-2H-phthalazin-6-yl]-2-methyl-pyrazol-3-yl]benzothiophene-2-carbonitrile] | 507 | – | – | – | – | 312 | 324 | –
13 | Cn1ncc(-c2ccc3c(=O)[nH]nc(CN)c3c2)c1-c1csc2cccc(=O)n12 [Example 4-267, 3-[4-[4-(aminomethyl)-1-oxo-2H-phthalazin-6-yl]-2-methyl-pyrazol-3-yl] thiazolo[3,2-a]pyridin-5-one] | 6140 | – | – | – | – | 10000 | 1000 | –
14 | Cn1ncc(-c2cc(C(F)F)c3c(=O)[nH]nc(CN)c3c2)c1-c1sc2ccccc2c1C#N [Example 10-21, 2-[4-[4-(aminomethyl)-8-(difluoromethyl)-1-oxo-2H-phthalazin-6-yl]-2-methyl-pyrazol-3-yl]benzothiophene-3-carbonitrile] | 4.09 | – | – | – | – | 35 | 35 | > 1000
15 | Cn1ncc(-c2cc(Cl)c3c(=O)[nH]nc(CN)c3c2)c1-c1sc2ccccc2c1C#N [Example 10-22, 2-(4-(4-(aminomethyl)-8-chloro-1-oxo-1,2-dihydrophthalazin-6-yl)-1-methyl-1H-pyrazol-5-yl)benzo[b]thiophene-3-carbonitrile] | 86.8 | – | – | – | – | 52 | 17 | –
16 | Cc1cc(-c2cnn(C)c2-c2sc3ccccc3c2C#N)cc2c(CN)n[nH]c(=O)c12 [Example 10-23, 2-[4-[4-(aminomethyl)-8-methyl-1-oxo-2H-phthalazin-6-yl]-2-methyl-pyrazol-3-yl]benzo-thiophene-3-carbonitrile] | 126 | – | – | – | – | 30 | 15 | > 1000
17 | Cn1ncc(-c2cc([C@@H]3CCCO3)c3c(=O)[nH]nc(CN)c3c2)c1-c1sc2ccccc2c1C#N [Example 15-3, (S)-2-(4-(4-(aminomethyl)-1-oxo-8-(THF-2-yl)-1,2-dihydrophthalazin-6-yl)-1-methyl-1H-pyrazol-5-yl)benzo[b]thiophene-3-carbonitrile] | 16.3 | – | – | – | – | 22 | 6 | 330
18 | COCc1cc(-c2cnn(C)c2-c2sc3ccccc3c2C#N)cc2c(CN)n[nH]c(=O)c12 [Example 15-5, 2-[4-[4-(aminomethyl)-8-(methoxymethyl)-1-oxo-2H-phthalazin-6-yl]-2-methyl-pyrazol-3-yl]benzothiophene-3-carbonitrile] | – | – | – | – | – | 23 | 5 | 595
19 | Cn1ncc(-c2ccc3c(=O)[nH]cc(CN)c3c2)c1-c1ccc2ccccc2c1C#N [Example 18-2, 2-[4-[4-(aminomethyl)-1-oxo-2H-isoquinolin-6-yl]-2-methyl-pyrazol-3-yl]naphthalene-1-carbonitrile] | 2930 | – | – | – | – | 2870 | > 1000 | –

Source: patent publication US20240208912A1 (Mirati Therapeutics, Inc., priority 2021, published 2024)
